Measured values published in US7615361B2, “Toxicity screening methods” (Ceetox, Inc., priority 2006, dated 2009).

Columns and labels:
[1] = system: iNOS; assay: bDNA analysis of mRNA in rat cardiomyocytes; format: cell-based
Experimental: Nitric oxide was also evaluated since it has been implicated in many pathways related to oxidative stress, apoptosis, and cardiac hypertrophy. More specifically, adriamycin induced mitochondrial toxicity is reduced in the presence of increased iNOS. Thus, a compensatory response to mitochondrial toxicity may be an increase in iNOS (Chaiswing et al., 2005). In this example, rat cardiomyocytes exposed to adriamycin induced iNOS expression more than 15-fold (FIG. 27C).
bDNA Sample Collection and Storage: After 48 hr compound exposure in 96-well plates, 50 μL of stock lysis mixture was added to each 100 μL well. Plates were mixed using a DPC 5 Micromix plate shaker at 37° C. for 15-30 minutes to ensure complete lysis of cells. Cell lysis was confirmed using a Nikon inverted microscope. Plates were stored at −80° C. until further analysis.
bDNA Analysis (Day 1): All solutions were prepared fresh on the day of analysis. Quantigene® bDNA kit components were brought to room temperature prior to use. […]
Substrate working solution was prepared by adding 30 μL of 10% Lithium Lauryl Sulfate to 10 mL Substrate solution per plate. […] Upon completion of last incubation, luminescence was measured using a Packard Fusion or equivalent plate reader with plate heater set to 46° C. Data were collected as relative light units (RLU) and expressed as fold change relative to controls after background subtract.

[2] = system: H4IIE cells; assay: MemTox membrane leakage (AK / α-GST); format: cell-based, rat; settings: rat, 24 h
How it was run: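 H4IIE rat hepatoma cells were exposed to compound diluted in complete culture medium. Leakage of adenylate kinase (luminescence) and/or α-GST (ELISA, 450/650 nm) was measured in the medium collected at the end of exposure. Percent live cells was computed relative to 1 mM digitonin-treated maximum release, as means of n=3-7.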

[3] = system: SK-MEL28 cells; assay: BrdU incorporation; format: cell-based, human; settings: SK-MEL28, 24 hr exposure to 5 and 10 μM
Experimental: Bromodexoyurine (BrDU) Incorporation: This assay was used to monitor cumulative changes in DNA replication. The assay uses the thymidine analog BrdU to measure S-phase of cell replication and is considered to be the Gold Standard for cell proliferation. BrDU (10 μM) was included in the test compound dosing solution to allow BrDU incorporation during cell replication. BrDU was included for the duration of the exposure, 24 hr. After completion of exposure period, the cells were fixed and labeled with mouse monoclonal anti-BrDU (FITC). Fluorescence was measured using a Packard Fusion or equivalent plate reader at 485 nm excitation and 530 nm emission.
Bromodexoyurine (BrDU) Incorporation: After incubation, the test compound/BrDU solution was removed and cells were fixed. A solution containing mouse monoclonal anti-BrDU (FITC) was added and fluorescence was measured. Data were collected as relative fluorescent units (RFU). The blank was subtracted from the final well RFU. It represents the average of the first and last columns which contain no cells on that particular plate. The controls are untreated cells allowed to grow on the same plate. The compounds are represented by several separate RFU data points for each of the tested concentrations. The percent change relative to controls was calculated by dividing the average RFU by the control cell RFU and multiplying by 100.
Experiments were also conducted to verify the relationship between exposure time and the observed cytostatic effects of the test compound. An additional assay was used to monitor cumulative change in DNA replication. The assay uses the thymidine analog BrdU to measure S-phase of cell replication and is considered to be the Gold Standard for cell proliferation. […] The BrdU assay paralleled the MTT and propidium iodide assays. The apparent lower sensitivity of the BrdU assay is a reflection of the experimental design not the assay. BrdU data represents a cumulative effect from the beginning of exposure while the other assays are measuring one is remaining at the end of either the 24 hr or 72 hr exposure period. […] There was a trend toward increasing activity in caspase-3, a marker for cell apoptosis.

Structure (SMILES)	iNOS expression induction [1]	less toxic in liver cells than in the cardiomyocytes (TC50 for membrane integrity) [2]	Cell proliferation as measured by the S-phase marker BrdU [3]
COc1cccc2c1C(=O)c1c(O)c3c(c(O)c1C2=O)C[C@@](O)(C(=O)CO)C[C@@H]3O[C@H]1C[C@H](N)[C@H](O)[C@H](C)O1 [ADRIAMYCIN, Adriamycin]	more than 15 fold	approximately 5 fold	
CC[C@@]1(O)C(=O)OCc2c1cc1n(c2=O)Cc2cc3ccccc3nc2-1 [CAMPTOTHECIN, Camptothecin]			undetectable
